Experiments:
[1] = target: T1, Glucagon-like peptide 2 receptor (Homo sapiens, UniProt O95838); assay: Agonist activity at human GLP2R expressed in HEK293 cells after 5 hrs by luciferase reporter gene assay; assay type: cell-based
T1 sequence (O95838 whole entry): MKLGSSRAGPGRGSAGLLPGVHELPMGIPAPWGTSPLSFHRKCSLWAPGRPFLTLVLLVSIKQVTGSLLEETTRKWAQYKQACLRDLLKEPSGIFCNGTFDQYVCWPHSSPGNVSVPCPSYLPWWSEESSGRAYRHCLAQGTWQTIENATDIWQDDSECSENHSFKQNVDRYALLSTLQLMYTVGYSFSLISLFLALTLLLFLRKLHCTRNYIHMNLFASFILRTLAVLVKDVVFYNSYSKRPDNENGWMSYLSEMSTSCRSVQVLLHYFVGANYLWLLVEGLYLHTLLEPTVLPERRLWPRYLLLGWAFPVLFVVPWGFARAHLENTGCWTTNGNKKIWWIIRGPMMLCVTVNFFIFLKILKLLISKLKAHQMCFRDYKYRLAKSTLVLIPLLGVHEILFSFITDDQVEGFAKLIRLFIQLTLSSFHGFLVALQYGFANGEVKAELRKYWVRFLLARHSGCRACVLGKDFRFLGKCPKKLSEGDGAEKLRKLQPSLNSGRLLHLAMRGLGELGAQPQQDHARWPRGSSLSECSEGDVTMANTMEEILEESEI

[2] = target: Glucagon-like peptide 1 receptor (Homo sapiens, UniProt P43220); assay: Agonist activity at human GLP1R expressed in HEK293 cells after 5 hrs by luciferase reporter gene assay; assay type: cell-based
HEK293 = assay: Selectivity ratio of EC50 for human GLP1R expressed in HEK293 cells to EC50 for human GLP2R expressed in HEK293; assay type: cell-based
[3] = Systemic clearance in Sprague-Dawley rat at 0.2 mg/kg, iv through cassette dosing measured up to 300 mins by LC/MS/MS analysis; assay type: ADME, organism-based; conditions: in vivo

Sequence of Glucagon-like peptide 1 receptor (P43220 whole entry): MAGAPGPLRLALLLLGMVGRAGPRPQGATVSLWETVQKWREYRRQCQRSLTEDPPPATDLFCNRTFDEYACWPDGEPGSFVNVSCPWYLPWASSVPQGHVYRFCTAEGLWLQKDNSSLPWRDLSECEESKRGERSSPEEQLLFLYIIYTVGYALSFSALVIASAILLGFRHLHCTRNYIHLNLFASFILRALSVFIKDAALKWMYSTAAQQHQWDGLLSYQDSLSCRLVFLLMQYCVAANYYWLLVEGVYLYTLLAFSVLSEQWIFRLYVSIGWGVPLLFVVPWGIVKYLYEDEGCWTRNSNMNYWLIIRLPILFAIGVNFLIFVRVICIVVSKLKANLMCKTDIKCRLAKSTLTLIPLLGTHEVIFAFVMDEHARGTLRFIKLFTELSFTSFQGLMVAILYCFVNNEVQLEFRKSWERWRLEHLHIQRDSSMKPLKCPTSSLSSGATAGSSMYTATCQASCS

SMILES | EC50 [1] [nM] | EC50 [2] [nM] | clearance [3] [mL/min/kg] | Ratio EC50 (HEK293)
CCCCC(NC(=O)[C@H](CCC(=O)O)NC(=O)[C@H](CC(=O)O)NC(=O)[C@H](CO)NC(=O)[C@H](Cc1ccccc1)NC(=O)[C@H](CO)NC(=O)CNC(=O)[C@H](CC(=O)O)NC(=O)CNC(=O)[C@@H](N)Cc1cnc[nH]1)C(=O)N[C@H](Cc1cccc(Cl)c1)C(=O)N[C@H](C(=O)N[C@H](C(=O)N[C@@H](CC(C)C)C(=O)N[C@@H](CC(=O)O)C(=O)N[C@@H](Cc1ccccc1)C(=O)N[C@@H](CC(C)C)C(=O)N[C@@H](C)C(=O)N[C@@H](C)C(=O)N[C@@H](CCCNC(=N)N)C(=O)N[C@@H](CC(=O)O)C(=O)N[C@@H](Cc1ccccc1)C(=O)N[C@H](C(=O)N[C@@H](CC(N)=O)C(=O)N[C@@H](Cc1c[nH]c2ccccc12)C(=O)N[C@@H](CC(C)C)C(=O)N[C@H](C(=O)N[C@@H](CCC(N)=O)C(=O)N[C@H](C(=O)N[C@@H](CCCCN)C(=O)N[C@H](C(=O)N[C@H](C(=O)N[C@@H](CC(=O)O)C(N)=O)[C@@H](C)O)[C@@H](C)CC)[C@@H](C)O)[C@@H](C)CC)[C@@H](C)CC)[C@@H](C)CC)[C@@H](C)O (stereo partly specified) | 0.13 | > 1000 | 0.12 | > 7600
CCCCC(NC(=O)[C@@H](CCC(=O)O)NC(=O)[C@@H](CC(=O)O)NC(=O)[C@@H](CO)NC(=O)[C@@H](Cc1ccccc1)NC(=O)[C@@H](CO)NC(=O)CNC(=O)[C@@H](CC(=O)O)NC(=O)CNC(=O)[C@@H](N)Cc1cnc[nH]1)C(=O)N[C@@H](Cc1cccc(Cl)c1)C(=O)N[C@@H](C(=O)N[C@@H](C(=O)N[C@H](CC(C)C)C(=O)N[C@H](CC(=O)O)C(=O)NC(Cc1ccc2ccccc2c1)C(=O)N[C@@H](CC(C)C)C(=O)N[C@@H](C)C(=O)N[C@@H](C)C(=O)N[C@@H](CCCNC(=N)N)C(=O)N[C@@H](CC(=O)O)C(=O)N[C@@H](Cc1ccccc1)C(=O)N[C@H](C(=O)N[C@@H](CC(N)=O)C(=O)N[C@H](Cc1c[nH]c2ccccc12)C(=O)N[C@H](CC(C)C)C(=O)N[C@@H](C(=O)N[C@H](CCC(N)=O)C(=O)N[C@@H](C(=O)N[C@H](CCCCN)C(=O)N[C@@H](C(=O)N[C@@H](C(=O)N[C@@H](CC(=O)O)C(N)=O)[C@H](C)O)[C@@H](C)CC)[C@H](C)O)[C@@H](C)CC)[C@H](C)CC)[C@@H](C)CC)[C@H](C)O (stereo partly specified) | 0.51 | > 1000 | 0.11 | > 1900
CCCCC(NC(=O)[C@H](CCC(=O)O)NC(=O)[C@H](CC(=O)O)NC(=O)[C@H](CO)NC(=O)[C@H](Cc1ccccc1)NC(=O)[C@H](CO)NC(=O)CNC(=O)[C@H](CC(=O)O)NC(=O)CNC(=O)[C@@H](N)Cc1cnc[nH]1)C(=O)N[C@H](Cc1ccccc1)C(=O)N[C@H](C(=O)N[C@H](C(=O)N[C@@H](CC(C)C)C(=O)N[C@@H](CC(=O)O)C(=O)N[C@@H](CC(C)C)C(=O)N[C@@H](CC(C)C)C(=O)N[C@@H](C)C(=O)N[C@@H](C)C(=O)N[C@@H](CCCNC(=N)N)C(=O)N[C@@H](CC(=O)O)C(=O)N[C@@H](Cc1ccccc1)C(=O)N[C@H](C(=O)N[C@@H](CC(N)=O)C(=O)N[C@@H](Cc1c[nH]c2ccccc12)C(=O)N[C@@H](CC(C)C)C(=O)N[C@H](C(=O)N[C@@H](CCC(N)=O)C(=O)N[C@H](C(=O)N[C@@H](CCCCN)C(=O)N[C@H](C(=O)N[C@H](C(=O)N[C@@H](CC(=O)O)C(=O)NCc1ccccc1)[C@@H](C)O)[C@@H](C)CC)[C@@H](C)O)[C@@H](C)CC)[C@@H](C)CC)[C@@H](C)CC)[C@@H](C)O (stereo partly specified) | 0.1 | > 1000 | 0.1 | > 10000
CCCCC(NC(=O)[C@H](CCC(=O)O)NC(=O)[C@H](CC(=O)O)NC(=O)[C@H](CO)NC(=O)[C@H](Cc1ccccc1)NC(=O)[C@H](CO)NC(=O)CNC(=O)[C@H](CC(=O)O)NC(=O)CNC(=O)[C@@H](N)Cc1cnc[nH]1)C(=O)N[C@H](Cc1cccc(Cl)c1)C(=O)N[C@H](C(=O)N[C@H](C(=O)N[C@@H](CC(C)C)C(=O)N[C@@H](CC(=O)O)C(=O)N[C@@H](CC(C)C)C(=O)N[C@@H](CC(C)C)C(=O)N[C@@H](C)C(=O)N[C@@H](C)C(=O)N[C@@H](CCCNC(=N)N)C(=O)N[C@@H](CC(=O)O)C(=O)N[C@@H](Cc1ccccc1)C(=O)N[C@H](C(=O)N[C@@H](CC(N)=O)C(=O)N[C@@H](Cc1c[nH]c2ccccc12)C(=O)N[C@@H](CC(C)C)C(=O)N[C@H](C(=O)N[C@@H](CCC(N)=O)C(=O)N[C@H](C(=O)N[C@@H](CCCCN)C(=O)N[C@H](C(=O)N[C@H](C(=O)N[C@@H](CC(=O)O)C(N)=O)[C@@H](C)O)[C@@H](C)CC)[C@@H](C)O)[C@@H](C)CC)[C@@H](C)CC)[C@@H](C)CC)[C@@H](C)O (stereo partly specified) | 0.09 | > 1000 | 0.2 | > 11000

Continued, in another order:

EC50 [1] [nM] | EC50 [2] [nM] | clearance [3] [mL/min/kg] | SMILES | Ratio EC50 (HEK293)
0.06 | > 1000 | 0.15 | CCCCC(NC(=O)[C@H](CCC(=O)O)NC(=O)[C@H](CC(=O)O)NC(=O)[C@H](CO)NC(=O)[C@H](Cc1ccccc1)NC(=O)[C@H](CO)NC(=O)CNC(=O)[C@H](CC(=O)O)NC(=O)CNC(=O)[C@@H](N)Cc1cnc[nH]1)C(=O)N[C@H](Cc1ccccc1)C(=O)N[C@H](C(=O)N[C@H](C(=O)N[C@@H](CC(C)C)C(=O)N[C@@H](CC(=O)O)C(=O)N[C@@H](Cc1ccccc1)C(=O)N[C@@H](CC(C)C)C(=O)N[C@@H](C)C(=O)N[C@@H](C)C(=O)N[C@@H](CCCNC(=N)N)C(=O)N[C@@H](CC(=O)O)C(=O)N[C@@H](Cc1ccccc1)C(=O)N[C@H](C(=O)N[C@@H](CC(N)=O)C(=O)N[C@@H](Cc1c[nH]c2ccccc12)C(=O)N[C@@H](CC(C)C)C(=O)N[C@H](C(=O)N[C@@H](CCC(N)=O)C(=O)N[C@H](C(=O)N[C@@H](CCCCN)C(=O)N[C@H](C(=O)N[C@H](C(=O)N[C@@H](CC(=O)O)C(=O)O)[C@@H](C)O)[C@@H](C)CC)[C@@H](C)O)[C@@H](C)CC)[C@@H](C)CC)[C@@H](C)CC)[C@@H](C)O (stereo partly specified) | > 16000
0.09 | > 1000 | 0.3 | CCCCC(NC(=O)[C@H](CCC(=O)O)NC(=O)[C@H](CC(=O)O)NC(=O)[C@H](CO)NC(=O)[C@H](Cc1ccccc1)NC(=O)[C@H](CO)NC(=O)CNC(=O)[C@H](CC(=O)O)NC(=O)CNC(=O)[C@@H](N)Cc1cnc[nH]1)C(=O)N[C@H](Cc1ccccc1)C(=O)N[C@H](C(=O)N[C@H](C(=O)N[C@@H](CC(C)C)C(=O)N[C@@H](CC(=O)O)C(=O)N[C@@H](Cc1ccccc1)C(=O)N[C@@H](CC(C)C)C(=O)N[C@@H](C)C(=O)N[C@@H](C)C(=O)N[C@@H](CCCNC(=N)N)C(=O)N[C@@H](CC(=O)O)C(=O)N[C@@H](Cc1ccccc1)C(=O)N[C@H](C(=O)N[C@@H](CC(N)=O)C(=O)N[C@@H](Cc1c[nH]c2ccccc12)C(=O)N[C@@H](CC(C)C)C(=O)N[C@H](C(=O)N[C@@H](CCC(N)=O)C(=O)N[C@H](C(=O)N[C@@H](CCCCN)C(N)=O)[C@@H](C)O)[C@@H](C)CC)[C@@H](C)CC)[C@@H](C)CC)[C@@H](C)O (stereo partly specified) | > 11000
0.08 | > 1000 | 0.33 | CCCCC(NC(=O)[C@H](CCC(=O)O)NC(=O)[C@H](CC(=O)O)NC(=O)[C@H](CO)NC(=O)[C@H](Cc1ccccc1)NC(=O)[C@H](CO)NC(=O)CNC(=O)[C@H](CC(=O)O)NC(=O)CNC(=O)[C@@H](N)Cc1cnc[nH]1)C(=O)N[C@H](Cc1cccs1)C(=O)N[C@H](C(=O)N[C@H](C(=O)N[C@@H](CC(C)C)C(=O)N[C@@H](CC(=O)O)C(=O)N[C@@H](CC(C)C)C(=O)N[C@@H](CC(C)C)C(=O)N[C@@H](C)C(=O)N[C@@H](C)C(=O)N[C@@H](CCCNC(=N)N)C(=O)N[C@@H](CC(=O)O)C(=O)N[C@@H](Cc1ccccc1)C(=O)N[C@H](C(=O)N[C@@H](CC(N)=O)C(=O)N[C@@H](Cc1c[nH]c2ccccc12)C(=O)N[C@@H](CC(C)C)C(=O)N[C@H](C(=O)N[C@@H](CCC(N)=O)C(=O)N[C@H](C(=O)N[C@@H](CCCCN)C(N)=O)[C@@H](C)O)[C@@H](C)CC)[C@@H](C)CC)[C@@H](C)CC)[C@@H](C)O (stereo partly specified) | > 12000
0.07 | 70 | 0.52 | CCCCC(NC(=O)[C@H](CCC(=O)O)NC(=O)[C@H](CC(=O)O)NC(=O)[C@H](CO)NC(=O)[C@H](Cc1ccccc1)NC(=O)[C@H](CO)NC(=O)CNC(=O)[C@H](CC(=O)O)NC(=O)CNC(=O)[C@@H](N)Cc1cnc[nH]1)C(=O)N[C@H](Cc1cccs1)C(=O)N[C@H](C(=O)N[C@H](C(=O)N[C@@H](CC(C)C)C(=O)N[C@@H](CC(=O)O)C(=O)N[C@@H](Cc1ccc(O)cc1)C(=O)N[C@@H](CC(C)C)C(=O)N[C@@H](C)C(=O)N[C@@H](C)C(=O)N[C@@H](CCCNC(=N)N)C(=O)N[C@@H](CC(=O)O)C(=O)N[C@@H](Cc1ccccc1)C(=O)N[C@H](C(=O)N[C@@H](CC(N)=O)C(=O)N[C@@H](Cc1c[nH]c2ccccc12)C(=O)N[C@@H](CC(C)C)C(=O)N[C@H](C(=O)N[C@@H](CCC(N)=O)C(=O)N[C@H](C(=O)N[C@@H](CCCCN)C(N)=O)[C@@H](C)O)[C@@H](C)CC)[C@@H](C)CC)[C@@H](C)CC)[C@@H](C)O (stereo partly specified) | 
